According to patent EP4810052A2, “HCRHR2 SELECTIVE POLYPEPTIDES” (Gubra A/S, priority 2023, dated 2026):
Marks after values point to notes of the source that are not given here. Starred links: 1 amine or outer side, 2 acyl side, 3 side chain; linkers in the order of their positions; H or OH if unused. Non-standard residues stand in square brackets, D forms with d. Residues, ends and D or L forms follow the SMILES beside them. Groups on a side chain read outwards from the residue. *: point of attachment. C20 diacid = O=C(O)CCCCCCCCCCCCCCCCCCC(=O)*; γGlu = O=C(O)[C@H](CCC(=O)[*:2])N[*:1]; Nle = CCCC[C@H](N)C(=O)O; AEEA = NCCOCCOCC(=O)O; Aib = CC(C)(N)C(=O)O

Experiments:
PK in rats = assay type: in vivo; design: T½ / MRT: unit not given here; settings: Rat
Method in brief: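 Lean male Sprague Dawley rats (n = 3 per group) got a two-peptide combination at 50 nmol/kg IV and SC. Plasma was sampled from 0.17 to 96 h post dose and analysed by LC-MSMS. PK parameters came from non-compartmental analysis.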

hCRHR1 = molecular target: T1, hCRHR1 (Homo sapiens, UniProt P34998); assay: HTRF cAMP assay, determination of hCRHR1 potency (peptide libraries 5 conc., purified peptides 11 conc.); assay type: cell-based; settings: Table 5, purified peptides; read-out: hCRHR1 EC50
T1 sequence (P34998 24-415): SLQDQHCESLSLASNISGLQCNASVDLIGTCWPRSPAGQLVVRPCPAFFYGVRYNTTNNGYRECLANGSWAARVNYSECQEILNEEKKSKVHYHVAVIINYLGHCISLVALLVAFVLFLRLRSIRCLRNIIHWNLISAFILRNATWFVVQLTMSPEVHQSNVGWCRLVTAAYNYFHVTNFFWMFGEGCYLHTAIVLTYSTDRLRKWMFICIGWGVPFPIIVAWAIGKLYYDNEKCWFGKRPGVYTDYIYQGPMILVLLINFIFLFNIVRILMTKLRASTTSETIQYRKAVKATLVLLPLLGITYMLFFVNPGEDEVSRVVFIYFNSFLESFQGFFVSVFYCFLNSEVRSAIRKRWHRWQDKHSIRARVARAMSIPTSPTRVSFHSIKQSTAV
Method in brief: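 CHO-K1 cells stably expressing human CRHR1, thawed from frozen stocks just before use, were stimulated in suspension with agonist peptides. cAMP was measured by HTRF competitive immunoassay (cryptate anti-cAMP antibody vs d2-cAMP).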

[1] = pH 7.5
hCRHR2 = molecular target: T2, hCRHR2 (Homo sapiens, UniProt Q13324); assay: HTRF cAMP assay, determination of hCRHR2 potency (peptide libraries 5 conc., purified peptides 11 conc.); assay type: cell-based
T2 sequence (Q13324 1-411): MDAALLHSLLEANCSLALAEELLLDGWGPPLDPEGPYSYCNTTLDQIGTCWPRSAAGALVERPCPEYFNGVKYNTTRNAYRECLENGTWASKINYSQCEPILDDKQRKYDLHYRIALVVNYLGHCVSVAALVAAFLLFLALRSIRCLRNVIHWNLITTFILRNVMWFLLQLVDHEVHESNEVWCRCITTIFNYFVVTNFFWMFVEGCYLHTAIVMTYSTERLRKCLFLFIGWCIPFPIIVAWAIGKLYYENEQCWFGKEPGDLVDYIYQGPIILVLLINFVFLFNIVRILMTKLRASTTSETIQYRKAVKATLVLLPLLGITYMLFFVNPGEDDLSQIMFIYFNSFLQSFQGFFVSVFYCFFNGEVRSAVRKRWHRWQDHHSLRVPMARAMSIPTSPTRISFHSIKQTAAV
Method in brief: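 Agonist peptides are added to suspended, freshly thawed CHO-K1 cells that stably carry the human receptor. Intracellular cAMP competes with d2-cAMP for a cryptate-tagged antibody, lowering the FRET signal. A variable-slope sigmoid curve is fitted to obtain EC50.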

[2] = Effect on acute food intake in mice; assay type: in vivo; settings: single subcutaneous dose
Method in brief: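 Male NMRI mice (n=7-8 per group) were fasted from six hours before the dark phase. They received a single subcutaneous peptide dose one hour before dark onset. Hourly food intake was monitored for 72 h and expressed as percent reduction versus vehicle, analysed by one-way ANOVA with Dunnett's test.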

Compound: CCCC[C@H](NC(=O)[C@@H](NC(=O)[C@H](CCC(=O)O)NC(=O)[C@H](C)NC(=O)[C@H](CC(N)=O)NC(=O)C(C)(C)NC(=O)[C@H](CCCCNC(=O)COCCOCCNC(=O)COCCOCCNC(=O)CC[C@H](NC(=O)CC[C@H](NC(=O)CCCCCCCCCCCCCCCCCCC(=O)O)C(=O)O)C(=O)O)NC(=O)[C@H](C)NC(=O)[C@H](CCC(N)=O)NC(=O)[C@H](CCC(=O)O)NC(=O)[C@H](CCCNC(=N)N)NC(=O)[C@H](C)NC(=O)[C@H](C)NC(=O)[C@H](CCCNC(=N)N)NC(=O)[C@H](C)NC(=O)[C@H](CCCNC(=N)N)NC(=O)[C@H](C)NC(=O)[C@H](CCC(N)=O)NC(=O)[C@H](CO)NC(=O)[C@H](CC(C)C)NC(=O)[C@H](CC(C)C)NC(=O)[C@@H](NC(=O)[C@H](CCC(N)=O)NC(=O)[C@H](CC(C)C)NC(=O)[C@H](CC(C)C)NC(=O)CNC(=O)[C@@H](NC(=O)[C@@H]1CCCN1C(=O)[C@@H](NC(=O)[C@H](CC(=O)O)NC(=O)[C@H](CC(C)C)NC(=O)[C@H](CO)NC(=O)[C@H](CC(C)C)NC(=O)[C@@H](NC(=O)[C@@H](N)[C@@H](C)CC)C(C)C)C(C)C)[C@@H](C)CC)[C@@H](C)CC)[C@@H](C)CC)C(=O)N[C@@H](C)C(=O)N[C@@H](CCC(=O)O)C(=O)N[C@H](C(N)=O)C(C)C [compound 237] (H-IVLSLDVPIGLLQILLSQARARAAREQAK([AEEA-AEEA-γGlu-γGlu-C20 diacid])[Aib]NAEI[Nle]AEV-NH2)
- MRT (PK in rats): 5.1
- T½ (PK in rats): 4.1
- EC50 (hCRHR1): > 5000 nM
- Solubility pH 7.5, target conc. =10 mg/mL (measured mg/mL) [1]: 10 mg/mL
- Selectivity ratio (hCRHR1/ hCRHR2) (hCRHR2; Table 5): >6494
- EC50 (hCRHR2; Table 5, purified peptides, read-out: hCRHR2 EC50): 0.77 nM
- % FI compared to vehicle, 24 h post-dosing ([2]; 30 nmol/kg): 51.49*** %
- % FI compared to vehicle, 24 h post-dosing ([2]; 100 nmol/kg): 16.66*** %
- % FI compared to vehicle, 24 h post-dosing ([2]; 300 nmol/kg): 13.2*** %
